Experimental data: PubChem BioAssay AID220 (DTP/NCI, 2004)
Several values for one entry are separate records, joined by “and”; a condition that tells them apart may be missing. Equal entries are not always repeated. Inconclusive results are not listed.

System: CD8F1 mice, subcutaneous mammary adenocarcinoma, T/C%
Experiment: NCI In Vivo Anticancer Drug Screen. Data for tumor model Mammary Adenocarcinoma CD8F1 (subcutaneous) in CD8F1
Details: higher = larger tumour
Procedure: The antitumor activity of compounds was measured in mice bearing transplantable tumors. Survival or tumor size were measured and the results are expressed as the measurement made in the treated group (T) divided by the measurement made in the vehicle treated control group (C). The tumor model used in this assay is Mammary Adenocarcinoma CD8F1 (subcutaneous) in CD8F1

## Nc1nc(F)nc2c1ncn2C1OC(COP(=O)(O)O)C(O)C1O (stereo not drawn)
endpoint: median tumor weight (est.), dose: 12.5 mg/kg/injection, schedule: Q07DX005 (ip), vehicle: suspension in saline
  T/C: 69 % of control
endpoint: median tumor weight (est.), dose: 25.0 mg/kg/injection, schedule: Q07DX005 (ip), vehicle: Klucel (hydroxypropylcellulose) (HPC)
  T/C: 49 % of control
endpoint: median tumor weight (est.), dose: 25.0 mg/kg/injection, schedule: Q07DX005 (ip), vehicle: saline
  T/C: 84 % of control
endpoint: median tumor weight (est.), dose: 25.0 mg/kg/injection, schedule: Q07DX005 (ip), vehicle: suspension in saline
  T/C: 101 % of control
endpoint: median tumor weight (est.), dose: 50.0 mg/kg/injection, schedule: Q07DX005 (ip), vehicle: Klucel (hydroxypropylcellulose) (HPC)
  T/C: 77 % of control
endpoint: median tumor weight (est.), dose: 50.0 mg/kg/injection, schedule: Q07DX005 (ip), vehicle: suspension in saline
  T/C: 76 % of control
endpoint: median tumor weight (est.), dose: 100.0 mg/kg/injection, schedule: Q07DX005 (ip), vehicle: Klucel (hydroxypropylcellulose) (HPC)
  T/C: 101 % of control
endpoint: median tumor weight (est.), dose: 100.0 mg/kg/injection, schedule: Q07DX005 (ip), vehicle: saline
  T/C: 75 % of control and 98 % of control
endpoint: median tumor weight (est.), dose: 100.0 mg/kg/injection, schedule: Q07DX005 (ip), vehicle: suspension in saline
  T/C: 66 % of control
endpoint: median tumor weight (est.), dose: 200.0 mg/kg/injection, schedule: Q07DX005 (ip), vehicle: Klucel (hydroxypropylcellulose) (HPC)
  T/C: 50 % of control
endpoint: median tumor weight (est.), dose: 200.0 mg/kg/injection, schedule: Q07DX005 (ip), vehicle: suspension in saline
  T/C: 50 % of control
endpoint: median tumor weight (est.), dose: 400.0 mg/kg/injection, schedule: Q07DX005 (ip), vehicle: Klucel (hydroxypropylcellulose) (HPC)
  T/C: 34 % of control
endpoint: median tumor weight (est.), dose: 400.0 mg/kg/injection, schedule: Q07DX005 (ip), vehicle: saline
  T/C: 20 % of control

## COc1cc2cc(c1Cl)N(C)C(=O)C[C@H](OC(=O)[C@H](C)N(C)C(C)=O)[C@]1(C)O[C@H]1[C@H](C)[C@@H]1C[C@@](O)(NC(=O)O1)[C@H](OC)C=C/C=C(\C)C2
endpoint: median tumor weight (est.), dose: 0.03 mg/kg/injection, schedule: Q07DX005 (ip), vehicle: Klucel (hydroxypropylcellulose) (HPC)
  T/C: 167 % of control
endpoint: median tumor weight (est.), dose: 0.06 mg/kg/injection, schedule: Q07DX005 (ip), vehicle: Klucel (hydroxypropylcellulose) (HPC)
  T/C: 151 % of control
endpoint: median tumor weight (est.), dose: 0.12 mg/kg/injection, schedule: Q07DX005 (ip), vehicle: Klucel (hydroxypropylcellulose) (HPC)
  T/C: 264 % of control
endpoint: median tumor weight (est.), dose: 0.25 mg/kg/injection, schedule: Q07DX005 (ip), vehicle: Klucel (hydroxypropylcellulose) (HPC)
  T/C: 188 % of control
endpoint: median tumor weight (est.), dose: 62.0 micrograms/kg/injection, schedule: Q07DX005 (ip), vehicle: Klucel (hydroxypropylcellulose) (HPC)
  T/C: 54 % of control
endpoint: median tumor weight (est.), dose: 125.0 micrograms/kg/injection, schedule: Q07DX005 (ip), vehicle: Klucel (hydroxypropylcellulose) (HPC)
  T/C: 77 % of control
endpoint: median tumor weight (est.), dose: 250.0 micrograms/kg/injection, schedule: Q07DX005 (ip), vehicle: Klucel (hydroxypropylcellulose) (HPC)
  T/C: 110 % of control
endpoint: median tumor weight (est.), dose: 500.0 micrograms/kg/injection, schedule: Q07DX005 (ip), vehicle: Klucel (hydroxypropylcellulose) (HPC)
  T/C: 93 % of control
endpoint: median tumor weight change, dose: 125.0 micrograms/kg/injection, schedule: Q01DX001 (ip), vehicle: Klucel (hydroxypropylcellulose) (HPC)
  T/C: 67 % of control
endpoint: median tumor weight change, dose: 500.0 micrograms/kg/injection, schedule: Q01DX001 (ip), vehicle: Klucel (hydroxypropylcellulose) (HPC)
  T/C: 29 % of control and 35 % of control
endpoint: median tumor weight change, dose: 1000.0 micrograms/kg/injection, schedule: Q01DX001 (ip), vehicle: Klucel (hydroxypropylcellulose) (HPC)
  T/C: 3 % of control and 21 % of control
endpoint: median tumor weight change, dose: 2000.0 micrograms/kg/injection, schedule: Q01DX001 (ip), vehicle: Klucel (hydroxypropylcellulose) (HPC)
  T/C: 12 % of control

## Nc1ccc(S(=O)(=O)c2ccc(N)cc2)cc1
endpoint: median tumor weight change, dose: 31.25 mg/kg/injection, schedule: Q01DX001 (ip), vehicle: saline with Tween-80
  T/C: 106 % of control
endpoint: median tumor weight change, dose: 62.5 mg/kg/injection, schedule: Q01DX001 (ip), vehicle: saline with Tween-80
  T/C: 92 % of control
endpoint: median tumor weight change, dose: 125.0 mg/kg/injection, schedule: Q01DX001 (ip), vehicle: saline with Tween-80
  T/C: 87 % of control
endpoint: median tumor weight change, dose: 250.0 mg/kg/injection, schedule: Q01DX001 (ip), vehicle: saline with Tween-80
  T/C: 88 % of control
endpoint: median tumor weight change, dose: 500.0 mg/kg/injection, schedule: Q01DX001 (ip), vehicle: saline with Tween-80
  T/C: 80 % of control

## CCN(CC)CCOCCO
endpoint: median tumor weight change, dose: 62.5 mg/kg/injection, schedule: Q01DX001 (ip), vehicle: saline
  T/C: 151 % of control
endpoint: median tumor weight change, dose: 125.0 mg/kg/injection, schedule: Q01DX001 (ip), vehicle: saline
  T/C: 172 % of control
endpoint: median tumor weight change, dose: 250.0 mg/kg/injection, schedule: Q01DX001 (ip), vehicle: saline
  T/C: 65 % of control
